Data set [1] is described as follows: Pharmacokinetics of Compounds 27, 16, 14 and 22 in SD rats. Particulars: for AUC(0-t) / Cmax / half-life / clearance: Sprague-Dawley, rat, in vivo; for clearance: read-out: Cl—pred (converted). It is filed as in vivo. The source says: WinNonlin® 6.4 was used as the calculation software for PK parameters.
A further data set concerns the target T1, human ADORA3 (Homo sapiens, UniProt P0DMS8).
T1 construct: host or cells: CHO
T1 sequence (P0DMS8 1-318): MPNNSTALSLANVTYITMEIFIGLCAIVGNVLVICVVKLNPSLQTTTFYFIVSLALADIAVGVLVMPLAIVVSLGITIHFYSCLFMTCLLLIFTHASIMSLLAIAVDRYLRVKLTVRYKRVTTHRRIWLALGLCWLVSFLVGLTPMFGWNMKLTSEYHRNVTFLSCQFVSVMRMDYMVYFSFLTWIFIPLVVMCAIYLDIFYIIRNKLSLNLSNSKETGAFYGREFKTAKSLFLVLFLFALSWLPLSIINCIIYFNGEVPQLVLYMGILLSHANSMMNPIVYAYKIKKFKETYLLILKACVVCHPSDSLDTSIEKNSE
As to the kind of experiment: Calcium flow test (FLIPR), ADORA3 stably transfected CHO. The data set is classed as cell-based. Conditions: Table 9. Here is the method:
In this experiment, stably transfected cell lines over-expressing adenosine receptor coupled to human Gq were used, and the antagonistic function of Compound 22 was evaluated by testing the changes in intracellular calcium ion concentration. The binding of the A2AR agonist to A2AR could activate a downstream pathway to increase the intracellular calcium ion concentration. The antagonist would competitively occupy the binding site where the agonist binds to A2AR, thereby interrupting the intracellular signal transduction and leading to a change in the intracellular calcium ion concentration. By detecting the strength of the intracellular calcium ion signal, the antagonistic activities of the compound on human ADORA1, ADORA2A, ADORA2B and ADORA3 adenosine receptors were determined. […]
7) The FLIPR instrument software was operated; following a set program, 10 μL of experimental buffer salt solution was added to the cell plate; and fluorescence signals were read. Then, 10 μL of the reference compound of agonist at a predetermined concentration was added to the cell plate, and the fluorescence signals were read. After reading, data was exported by means of “Max-Min” and “Read 91 to Maximum allowed” in the software, the EC80 of each cell line was calculated, and an agonist with a concentration of 6×EC80 was prepared.
9) The FLIPR instrument software was operated; following a set program, 10 μL of the test compound and 10 μL of the reference compound were added at a predetermined concentration to the cell plate; and the fluorescence signals were read. Then, 10 μL of the reference compound of agonist at a concentration of 6×EC80 was added to the cell plate, and the fluorescence signal were read. For the antagonist detection of the compound, data was exported by means of “Max-Min” and “Read 1 to 90” in the software. […]

The subject of data set [2] is reserpine-induced dyskinesia. As to the kind of experiment: Mouse reserpine-induced dyskinesia model (Laboras spontaneous activity). The data set is classed as in vivo, CD1 mice. The source says: Reserpine is an indole alkaloid drug, which can inhibit the reuptake of noradrenergic neuron terminals to lead to slowed movement or incompetence, thereby inducing clinical symptoms similar to those of the Parkinson's disease. Its mechanism is as follows: the reserpine can block the transport of irreversible monoamines such as DA, 5-hydroxytryptamine (5-HT) and norepinephrine (NA) in vesicles, such that the monoamines are degraded in cells to consume central and peripheral monoamines, and rapidly reduce the level of monoamines, resulting in dyskinesias and other Parkinson's disease-like symptoms. An A2A receptor antagonist was administered to evaluate if the compound under test can ameliorate the dyskinesia of the mice. The evaluation indicators include walking distance, walking time, number of standings and standing time. […] The total number of actually used animals was 90. The animals were purchased from Charles River Laboratories in Beijing (Animal Certificate Number: 1100112011009984) and raised in the animal house of ChemPartner in Shanghai (Experimental Animal License: SYXK (Shanghai) 2017-0018). The animal house has an SPF environment. On the first day of the test, a single subcutaneous injection of 0.1% acetic acid or 0.6 mg/kg reserpine was performed based on the pre-set grouping and time points. After the injection, the animals were put back to rearing cages and pushed back to the original rearing room. The activity test was carried out on the second day of the test, and before the test, the Laboras system needed to be calibrated in advance to make it in a normal working state. […] The mice were put into an independent Laboras test box 50 minutes after the administration, and the Laboras behavior recording system was started up after 10 minutes of adaptation. The current moment is the 1st hour after the last administration for the animals, and the animals were recorded continuously for 60 minutes. After the test was completed, the Laboras behavior system automatically analyzed the walking distance (m), walking time (sec), the number of standings and standing time (sec) of the mice at 0-30 min, 30-60 min, 0-60 min and every 10 min. All measurement data were represented as mean±standard error of mean (mean±SEM), and check analysis was performed by Prism 8.0 statistical software.

[3] abbreviates: 10 mg/kg intragastric, 0-30 min.
Setting [4] is: 10 mg/kg intragastric, 0-60 min.
The mark [5] stands for this setting: 10 mg/kg intragastric, 30-60 min.
The mark [6] stands for this setting: 3 mg/kg intragastric, 30-60 min.
Where [7] appears, read: 30 mg/kg intragastric, 0-30 min.
[8] abbreviates: 30 mg/kg intragastric, 0-60 min.
Where [9] appears, read: 30 mg/kg intragastric, 30-60 min.

As for `COCCNc1ccc(CCNc2nc(N)n3nc(-c4ccco4)nc3n2)cc1` [Compound 27, 2-(furan-2-yl)-N5-(4-((2-methoxyethyl)amino)phenethyl)-[1,2,4]triazolo[1,5-a][1,3,5]triazine-5,7-diamine], in data set [1] (PO, dose 5 (mg/kg)), the “Cl—F—pred” value was found to be 147 mL/min/kg; the F is recorded as 33.85%; the AUC(0-t) (usually exposure summed from dosing to a finite time, without extrapolation to infinity) was determined as 484 ng·h/mL; the Cmax (as a rule, the peak of the concentration-time curve) was 318 ng/mL. The half-life (usually the time in which the quantity being followed falls by half) in data set [1] (PO, dose 5 (mg/kg)) was 4.36 h. Also, in data set [1] (IV, dose 1 (mg/kg)), the AUC(0-t) was found to be 477 ng·h/mL, the highest level (Cmax) was 1340 ng/mL, the half-life was 0.51 h and the clearance was 36 mL/min/kg.

Regarding `Nc1nc(NCCc2ccc(NC3COC3)cc2)nc2nc(-c3ccco3)nn12` [Compound 22, 2-(furan-2-yl)-N5-(4-(oxetan-3-ylamino)phenethyl)-[1,2,4]triazolo[1,5-a][1,3,5]triazine-5,7-diamine], in data set [1] (PO, dose 3 (mg/kg)), the “Cl—F—pred” value worked out at 25.3 mL/min/kg, the F is 39.49%, the AUC(0-t) came to 2100 ng·h/mL and the highest level (Cmax) was 580 ng/mL. The molecule also showed a half-life in data set [1] (PO, dose 3 (mg/kg)) of 3.3 h. Also, in data set [1] (IV, dose 1 (mg/kg)), the AUC(0-t) was 1770 ng·h/mL, the maximum concentration (Cmax) is 2350 ng/mL, the half-life is 1 h and the clearance is 9.5 mL/min/kg. Also, the 50% inhibitory concentration (IC50) (as a rule, the concentration at which inhibition is half-maximal) on human ADORA3 is 0.931 ± 0.0541 µM.

On to `CCn1c(=O)c2c(nc(/C=C/c3ccc(OC)c(OC)c3)n2C)n(CC)c1=O` [Istradefylline, reference compound], for which, in data set [2] (setting [3]), the Number of standings was found to be 94.3 ± 11.1, the Walking distance is on record as 11.9 ± 1.4 m and the Walking time was 177.5 ± 16.0 s. Besides, in data set [2] (setting [4]), the Number of standings is 165 ± 20, the Walking distance is recorded as 23.7 ± 3.2 m and the Walking time is 298.3 ± 28.4 s. Besides, in data set [2] (setting [5]), the Number of standings worked out at 70.6 ± 10.6, the Walking distance amounted to 11.8 ± 2.0 m and the Walking time was 120.8 ± 16.0 s.

For the molecule `CC(=O)O.Nc1nc(NCCc2ccc(NC3COC3)cc2)nc2nc(-c3ccco3)nn12` [Acetate of Compound 22, 2-(furan-2-yl)-N5-(4-(oxetane-3-ylamino)phenethyl)-[1,2,4]triazolo[1,5-a][1,3,5]triazine-5,7-diamine acetate], the Number of standings in data set [2] (3 mg/kg intragastric, 0-30 min) was 36.7 ± 5.9; in data set [2] (3 mg/kg intragastric, 0-60 min), 49.6 ± 12.2; in data set [2] (setting [6]), 12.9 ± 6.8; in data set [2] (setting [3]), 75.6 ± 8; in data set [2] (setting [4]), 116 ± 15.7; in data set [2] (setting [5]), 40.3 ± 11.4. For the same molecule, the figures for the Number of standings in data set [2] (setting [7]), in data set [2] (setting [8]) and in data set [2] (setting [9]) were 98.7 ± 12.6, 178 ± 20.9 and 79.4 ± 10.1, respectively. The Walking distance in data set [2] (3 mg/kg intragastric, 0-30 min) was 4.3 ± 0.7 m; in data set [2] (3 mg/kg intragastric, 0-60 min) it was 6.9 ± 2.1 m; in data set [2] (setting [6]) it was 2.6 ± 1.6 m; in data set [2] (setting [3]), 10.7 ± 1.0 m; in data set [2] (setting [4]), 19.2 ± 2.9 m; in data set [2] (setting [5]), 8.5 ± 2.3 m. The Walking distance is listed as 11.3 ± 1.1 m in data set [2] (setting [7]), 27.1 ± 2.5 m in data set [2] (setting [8]) and 15.9 ± 1.9 m in data set [2] (setting [9]). Further, the Walking time came to 77.8 ± 11.0 s in data set [2] (3 mg/kg intragastric, 0-30 min); 108.5 ± 23.0 s in data set [2] (3 mg/kg intragastric, 0-60 min); 30.7 ± 13.9 s in data set [2] (setting [6]); 160.5 ± 10.8 s in data set [2] (setting [3]); 245.4 ± 29.1 s in data set [2] (setting [4]); 84.9 ± 22.4 s in data set [2] (setting [5]). For the same molecule, the Walking time in data set [2] (setting [7]) was 175.6 ± 12.4 s; in data set [2] (setting [8]) it was 311.0 ± 22.3 s; in data set [2] (setting [9]) it was 135.4 ± 12.8 s.

Turning to `Cn1nnc(-c2ccc(CCNc3nc(N)n4nc(-c5ccco5)nc4n3)cc2)n1` [Compound 40, N5-(4-(2-methyl-2H-tetrazol-5-yl)phenethyl)-2-(furan-2-yl)-[1,2,4]triazolo[1,5-a][1,3,5]triazine-5,7-diamine], the IC50 on human ADORA3 is 6.3 ± 2.89 µM.
